Data from patent US12409179B2 (GENEROS BIOPHARMA LTD., priority 2019, dated 2025).

How the values were obtained:
[1] = tested on: Lewis rat adjuvant-induced arthritis model; assay: Embodiment 1: oral Nib1 and injected methotrexate in Lewis rat adjuvant-induced arthritis model (joint score, paw volume, AUC); assay type: in vivo
[2] = tested on: rat adjuvant-induced arthritis model; assay: Embodiment 2: oral Nib1 and medium-dose methotrexate in rat adjuvant-induced arthritis model (joint score, paw volume, AUC); assay type: in vivo, Lewis rat; details: MTX 0.5 mpk, Nib1 5 mpk, Nib1 5 mpk + MTX 0.5 mpk; for Total area (AUC of changes in paw volume): Embodiment 2, Tofacitinib 5 mpk, in mL·day
[3] = tested on: adjuvant-induced arthritis in rats; assay: Embodiment 3: oral Nib1 and methotrexate in adjuvant-induced arthritis in rats (joint score, paw volume, AUC); assay type: in vivo, Lewis rat
[4] = rat, in vivo, po, 10 mg/kg
[5] = rat, in vivo
rheumatoid arthritis = details: cited from earlier work
[6] = Embodiment 3, oral, Tofacitinib 5 mpk, MTX 0.05 mpk, Nib1 1 mpk, Nib1 1 mpk + MTX 0.05 mpk
[7] = day 0, oral, Tofacitinib 5 mpk, MTX 0.05 mpk, Nib1 1 mpk, Nib1 1 mpk + MTX 0.05 mpk
[8] = day 8, oral, Tofacitinib 5 mpk, MTX 0.05 mpk, Nib1 1 mpk, Nib1 1 mpk + MTX 0.05 mpk
[9] = day 11, oral, Tofacitinib 5 mpk, MTX 0.05 mpk, Nib1 1 mpk, Nib1 1 mpk + MTX 0.05 mpk
[10] = day 13, oral, Tofacitinib 5 mpk, MTX 0.05 mpk, Nib1 1 mpk, Nib1 1 mpk + MTX 0.05 mpk
[11] = day 15, oral, Tofacitinib 5 mpk, MTX 0.05 mpk, Nib1 1 mpk, Nib1 1 mpk + MTX 0.05 mpk
[12] = day 18, oral, Tofacitinib 5 mpk, MTX 0.05 mpk, Nib1 1 mpk, Nib1 1 mpk + MTX 0.05 mpk
[13] = day 21, oral, Tofacitinib 5 mpk, MTX 0.05 mpk, Nib1 1 mpk, Nib1 1 mpk + MTX 0.05 mpk
[14] = day 24, oral, Tofacitinib 5 mpk, MTX 0.05 mpk, Nib1 1 mpk, Nib1 1 mpk + MTX 0.05 mpk

O=c1[nH]c2ccccc2n1C1CCN(CCCC(c2ccc(F)cc2)c2ccc(F)cc2)CC1 [Nib1, Pimozide]
the therapeutic effects compared with vehicle group (paw volume x time AUC %) ([1]; methotrexate 0.5 mg/kg intraperitoneal once per week, Nib1 10 mg/kg oral once every two days): 66.6% | paw volume AUC relative to vehicle group, as fraction ([1]; methotrexate 0.5 mg/kg intraperitoneal, Nib1 10 mg/kg oral): 0.666 | Relative to G2 percentage (%) (AUC of changes in paw volume) ([2]; Embodiment 2, G2 = Vehicle, Tofacitinib 5 mpk): 56.9% | Total area (AUC of changes in paw volume) [2]: 21.32 | Clinical scoring of arthritis (sum of the scores of the quadrupedal joints), Average value ([2]; day 0, Tofacitinib 5 mpk): 0 | paw volume (right hind foot), Average value ([2]; day 0, Tofacitinib 5 mpk): 1.02 mL | Clinical scoring of arthritis (sum of the scores of the quadrupedal joints), Average value ([2]; day 7, Tofacitinib 5 mpk): 0.63 | paw volume (right hind foot), Average value ([2]; day 7, Tofacitinib 5 mpk): 1.71 mL | Clinical scoring of arthritis (sum of the scores of the quadrupedal joints), Average value ([2]; day 13, Tofacitinib 5 mpk): 1.75 | paw volume (right hind foot), Average value ([2]; day 13, Tofacitinib 5 mpk): 1.88 mL | Clinical scoring of arthritis (sum of the scores of the quadrupedal joints), Average value ([2]; day 15, Tofacitinib 5 mpk): 5.50 | paw volume (right hind foot), Average value ([2]; day 15, Tofacitinib 5 mpk): 1.94 mL | Clinical scoring of arthritis (sum of the scores of the quadrupedal joints), Average value ([2]; day 17, Tofacitinib 5 mpk): 6.75 | paw volume (right hind foot), Average value ([2]; day 17, Tofacitinib 5 mpk): 2.05 mL | Clinical scoring of arthritis (sum of the scores of the quadrupedal joints), Average value ([2]; day 20, Tofacitinib 5 mpk): 7.00 | paw volume (right hind foot), Average value ([2]; day 20, Tofacitinib 5 mpk): 2.05 mL | Clinical scoring of arthritis (sum of the scores of the quadrupedal joints), Average value ([2]; day 22, Tofacitinib 5 mpk): 7.25 | paw volume (right hind foot), Average value ([2]; day 22, Tofacitinib 5 mpk): 2.00 mL | Clinical scoring of arthritis (sum of the scores of the quadrupedal joints), Average value ([2]; day 24, Tofacitinib 5 mpk): 7.25 | paw volume (right hind foot), Average value ([2]; day 24, Tofacitinib 5 mpk): 2.06 mL | Clinical scoring of arthritis (sum of the scores of the quadrupedal joints), Average value ([2]; day 27, Tofacitinib 5 mpk): 7.00 | paw volume (right hind foot), Average value ([2]; day 27, Tofacitinib 5 mpk): 2.20 mL | Clinical scoring of arthritis (sum of the scores of the quadrupedal joints), Average value ([2]; day 29, Tofacitinib 5 mpk): 6.88 | paw volume (right hind foot), Average value ([2]; day 29, Tofacitinib 5 mpk): 2.16 mL | Clinical scoring of arthritis (sum of the scores of the quadrupedal joints), Average value ([2]; day 31, Tofacitinib 5 mpk): 7.13 | paw volume (right hind foot), Average value ([2]; day 31, Tofacitinib 5 mpk): 2.16 mL | Clinical scoring of arthritis (sum of the scores of the quadrupedal joints), Average value ([2]; day 34, Tofacitinib 5 mpk): 6.88 | paw volume (right hind foot), Average value ([2]; day 34, Tofacitinib 5 mpk): 1.02 mL | Relative to G2 percentage (%) (AUC of changes in paw volume) ([3]; Embodiment 3, G2 = Vehicle, oral, Tofacitinib 5 mpk, MTX 0.05 mpk, Nib1 1 mpk, Nib1 1 mpk + MTX 0.05 mpk): 74.9% | change ratio of ΔAUC relative to the vehicle group, as fraction ([3]; Embodiment 3, methotrexate 0.05 mg/kg, Nib1 1 mg/kg): 0.749 | Area under the curve AUC (ml*day) of changes in paw volume [3, 6]: 14.26 mL·days | Clinical scoring of arthritis (sum of the scores of the quadrupedal joints), Average value [3, 7]: 0.00 | volume of the right hind foot, Average value [3, 7]: 1.31 mL | Clinical scoring of arthritis (sum of the scores of the quadrupedal joints), Average value [3, 8]: 0.78 | volume of the right hind foot, Average value [3, 8]: 1.44 mL | Clinical scoring of arthritis (sum of the scores of the quadrupedal joints), Average value [3, 9]: 3.33 | volume of the right hind foot, Average value [3, 9]: 1.79 mL | Clinical scoring of arthritis (sum of the scores of the quadrupedal joints), Average value [3, 10]: 5.22 | Clinical scoring of arthritis (sum of the scores of the quadrupedal joints), Average value [3, 11]: 6.33 | volume of the right hind foot, Average value [3, 11]: 2.41 mL | Clinical scoring of arthritis (sum of the scores of the quadrupedal joints), Average value [3, 12]: 7.89 | volume of the right hind foot, Average value [3, 12]: 2.73 mL | Clinical scoring of arthritis (sum of the scores of the quadrupedal joints), Average value [3, 13]: 8.56 | volume of the right hind foot, Average value ([3]; day 22, oral, Tofacitinib 5 mpk, MTX 0.05 mpk, Nib1 1 mpk, Nib1 1 mpk + MTX 0.05 mpk): 3.10 mL | Clinical scoring of arthritis (sum of the scores of the quadrupedal joints), Average value [3, 14]: 8.67 | changes in body weight over time (FIG. 1) [4]: lower than other groups, but there was no significant difference | changes in body weight over time (Table 5, FIG. 5) [5]: decreased significantly in the initial stage, and gradually recovered in the later stage

CN(Cc1cnc2nc(N)nc(N)c2n1)c1ccc(C(=O)N[C@@H](CCC(=O)O)C(=O)O)cc1 [MTX, Methotrexate]
Total area (AUC of changes in paw volume) [2]: 29.94 | Clinical scoring of arthritis (sum of the scores of the quadrupedal joints), Average value ([2]; day 0, Tofacitinib 5 mpk): 0 | paw volume (right hind foot), Average value ([2]; day 0, Tofacitinib 5 mpk): 1.02 mL | Clinical scoring of arthritis (sum of the scores of the quadrupedal joints), Average value ([2]; day 7, Tofacitinib 5 mpk): 0.75 | paw volume (right hind foot), Average value ([2]; day 7, Tofacitinib 5 mpk): 1.98 mL | Clinical scoring of arthritis (sum of the scores of the quadrupedal joints), Average value ([2]; day 13, Tofacitinib 5 mpk): 1.75 | paw volume (right hind foot), Average value ([2]; day 13, Tofacitinib 5 mpk): 2.10 mL | Clinical scoring of arthritis (sum of the scores of the quadrupedal joints), Average value ([2]; day 15, Tofacitinib 5 mpk): 5.50 | paw volume (right hind foot), Average value ([2]; day 15, Tofacitinib 5 mpk): 2.28 mL | Clinical scoring of arthritis (sum of the scores of the quadrupedal joints), Average value ([2]; day 17, Tofacitinib 5 mpk): 7.00 | paw volume (right hind foot), Average value ([2]; day 17, Tofacitinib 5 mpk): 2.43 mL | Clinical scoring of arthritis (sum of the scores of the quadrupedal joints), Average value ([2]; day 20, Tofacitinib 5 mpk): 7.50 | paw volume (right hind foot), Average value ([2]; day 20, Tofacitinib 5 mpk): 2.48 mL | Clinical scoring of arthritis (sum of the scores of the quadrupedal joints), Average value ([2]; day 22, Tofacitinib 5 mpk): 7.63 | paw volume (right hind foot), Average value ([2]; day 22, Tofacitinib 5 mpk): 2.50 mL | Clinical scoring of arthritis (sum of the scores of the quadrupedal joints), Average value ([2]; day 24, Tofacitinib 5 mpk): 7.63 | paw volume (right hind foot), Average value ([2]; day 24, Tofacitinib 5 mpk): 2.56 mL | Clinical scoring of arthritis (sum of the scores of the quadrupedal joints), Average value ([2]; day 27, Tofacitinib 5 mpk): 7.50 | paw volume (right hind foot), Average value ([2]; day 27, Tofacitinib 5 mpk): 2.62 mL | Clinical scoring of arthritis (sum of the scores of the quadrupedal joints), Average value ([2]; day 29, Tofacitinib 5 mpk): 7.63 | paw volume (right hind foot), Average value ([2]; day 29, Tofacitinib 5 mpk): 2.65 mL | Clinical scoring of arthritis (sum of the scores of the quadrupedal joints), Average value ([2]; day 31, Tofacitinib 5 mpk): 7.63 | paw volume (right hind foot), Average value ([2]; day 31, Tofacitinib 5 mpk): 2.66 mL | Clinical scoring of arthritis (sum of the scores of the quadrupedal joints), Average value ([2]; day 34, Tofacitinib 5 mpk): 7.50 | paw volume (right hind foot), Average value ([2]; day 34, Tofacitinib 5 mpk): 1.02 mL | Area under the curve AUC (ml*day) of changes in paw volume [3, 6]: 19.31 mL·days | Clinical scoring of arthritis (sum of the scores of the quadrupedal joints), Average value [3, 7]: 0.00 | volume of the right hind foot, Average value [3, 7]: 1.30 mL | Clinical scoring of arthritis (sum of the scores of the quadrupedal joints), Average value [3, 8]: 0.44 | volume of the right hind foot, Average value [3, 8]: 1.38 mL | Clinical scoring of arthritis (sum of the scores of the quadrupedal joints), Average value [3, 9]: 4.33 | volume of the right hind foot, Average value [3, 9]: 2.14 mL | Clinical scoring of arthritis (sum of the scores of the quadrupedal joints), Average value [3, 10]: 7.33 | Clinical scoring of arthritis (sum of the scores of the quadrupedal joints), Average value [3, 11]: 9.00 | volume of the right hind foot, Average value [3, 11]: 2.88 mL | Clinical scoring of arthritis (sum of the scores of the quadrupedal joints), Average value [3, 12]: 10.22 | volume of the right hind foot, Average value [3, 12]: 3.14 mL | Clinical scoring of arthritis (sum of the scores of the quadrupedal joints), Average value [3, 13]: 10.78 | Clinical scoring of arthritis (sum of the scores of the quadrupedal joints), Average value [3, 14]: 10.89 | main side effects (rheumatoid arthritis; rheumatoid arthritis therapy): liver and gastrointestinal toxicity | patients who stop taking the drug because of side effects (rheumatoid arthritis; within a year): about 50%
